US20040019043A1, “Thiomolybdate analogues and uses thereof” (priority 2002, published 2004)
Marks after values point to notes of the source that are not given here. Values belong to the compound of their own block, whether it stands above or below them.

Key:
[1] = Chemical Stability Data for Analogs
[2] = Animal weight and hematocrit in 3LL tumor-bearing mice
Experimental: (§1) Animals are followed by weighing, palpation and measurement of tumor size. […] A positive control compound, for example cyclophosphamide at 170 mg/kg/injection is given every 6 days. Results computed include mean animal weight, tumor size, tumor weight and survival time. For confirmed therapeutic activity, the test composition should be tested in two multi-dose assays. Female C57/BL mice were inoculated with 1×10^6 Lewis Lung carcinoma (3LL) cells subcutaneously in the middle of the back. […] Cyclophosphamide (170 mg/kg given every 6 days subcutaneously beginning on day 3 after tumor cell inoculation) was used as a control. Tumor volumes and animal weights were measured 2×/week and the animals euthanized when the volume of the tumors in the control group reached an average of 2000 mm^3. The ratio (T/C) of the tumor volumes in the treated group (T) to the control group (C) were determined. Terminal cardiac bleeds were obtained and analyzed for red blood cell concentration (hematocrit, HCT).

[3] = tested on: Lewis Lung carcinoma (3LL) cells; assay: In Vivo 3LL Lewis Lung Carcinoma: Primary Tumor Growth; conditions: 3LL s.c. in female C57/BL mice; TM and CHTM 50 mg/kg po by gavage from day after inoculation; cyclophosphamide 170 mg/kg s.c. every 6 days from day 3
Experimental: The tumor model used was 3LL JF in C57BL/6 mice. […] The test compound is administered daily for 11-25 days.
as §1

[4] = After 10 days, Oven to room conditions

Compound: C[N+](C)(C)c1ccccc1.C[N+](C)(C)c1ccccc1.[S]=[Mo](=[S])([S-])[S-] [Trimethylphenylammonium, Tetrathiomolybdate, bis(phenyltrimethylammonium)]
% remaining ([1]; 7 days, 74-77% RH, RT): 98%
% remaining [1, 4]: 85%

Compound: CCn1cc[n+](C)c1.CCn1cc[n+](C)c1.[S]=[Mo](=[S])([S-])[S-] [1-ethyl-3-methyl-1H-imidazolium, Tetrathiomolybdate, bis(1-ethyl-3-methyl-1H-imidazolium)]
% remaining [1, 4]: 75%

Compound: C[N+](C)(Cc1ccccc1)c1ccccc1.C[N+](C)(Cc1ccccc1)c1ccccc1.[S]=[Mo](=[S])([S-])[S-] [bis(benzylphenyldimethylammonium), Tetrathiomolybdate, bis(benzylphenyldimethylammonium)]
% remaining ([1]; 7 days, 74-77% RH, RT): 45%

Compound: C[N+]1(C)CCCC1.C[N+]1(C)CCCC1.[S]=[Mo](=[S])([S-])[S-] [1,1-dimethylpyrrolidinium, Tetrathiomolybdate, bis(1,1-dimethylpyrrolidinium)]
% remaining [1, 4]: 70%

Compound: C[N+](C)(C)CCCCCC[N+](C)(C)C.[S]=[Mo](=[S])([S-])[S-] [hexane-1,6-bis(trimethylammonium), Tetrathiomolybdate, hexane-1,6-bis(trimethylammonium)]
% remaining ([1]; 7 days, 74-77% RH, RT): 94%

Compound: C[N+](C)(C)CCCC[N+](C)(C)C [butane-1,4-bis(trimethylammonium)]
% remaining [1, 4]: 40%

HCT (hematocrit, red blood cell concentration) ([2]; mouse, in vivo): 35%
MOUSE WEIGHT % of initial ([2]; mouse, in vivo): 103%
% remaining [1, 4]: 62%
Compound: C[N+](C)(C)CCO [Choline, Tetrathiomolybdate, bis(choline)]

Compound: Cc1cc[n+](C)cc1 [1,4-dimethylpyridinium, Tetrathiomolybdate, bis(1,4-dimethylpyridinium)]
% remaining [1, 4]: 32%

Compound: C[N+](C)(C)CC1CC1.C[N+](C)(C)CC1CC1.[S]=[Mo](=[S])([S-])[S-] [bis(cyclopropylmethyltrimethylammonium), Tetrathiomolybdate, bis(cyclopropylmethyltrimethyl ammonium)]
% remaining ([1]; 7 days, 74-77% RH, RT): 86%

Compound: C[N+](C)(C)CCCCC[N+](C)(C)C [pentane-1,5-bis(trimethylammonium), Tetrathiomolybdate, pentane-1,5-bis(trimethylammonium)]
% remaining [1, 4]: 86%

Compound: CC[N+](C)(CC)CC.CC[N+](C)(CC)CC.[S]=[Mo](=[S])([S-])[S-] [Methyltriethylammonium, Tetrathiomolybdate, bis(triethylmethyl ammonium)]
% remaining [1, 4]: 63%

Compound: O=P1(N(CCCl)CCCl)NCCCO1 (stereo not shown) [Cyclophosphamide]
T/C (ratio of tumor volumes in treated group to control group) [3]: 0.74
MOUSE WEIGHT % of initial ([2]; 3LL tumor-bearing female C57/BL mice, same dosing as T/C): 105%
HCT (hematocrit, red blood cell concentration) ([2]; terminal cardiac bleeds, normal is 45%): 40%

Compound: Ethylenebis(trimethylammonium)
% remaining [1, 4]: 40%

Compound: CC[N+](CC)(CC)c1ccccc1.CC[N+](CC)(CC)c1ccccc1.[S]=[Mo](=[S])([S-])[S-] [Triethylphenylammonium, Tetrathiomolybdate, bis(triethylphenyl ammonium)]
% remaining [1, 4]: 76%

Compound: C=C[N+](C)(C)C.C=C[N+](C)(C)C.[S]=[Mo](=[S])([S-])[S-] [bis(vinyltrimenthyammonium), Tetrathiomolybdate, bis(vinyltrimethyl ammonium)]
% remaining ([1]; 7 days, 74-77% RH, RT): 72%

Compound: [NH4+].[NH4+].[SH-].[SH-].[S]=[Mo]=[S] [Ammonium, ammonium tetrathiomolybdate]
T/C (ratio of tumor volumes in treated group to control group) [3]: 0.59
HCT (hematocrit, red blood cell concentration) ([2]; mouse, in vivo): 35%
MOUSE WEIGHT % of initial ([2]; mouse, in vivo): 93%*
% remaining ([1]; *9 days, different study, Oven to room conditions): *48%

Compound: C[N+](C)(C)Cc1ccccc1.C[N+](C)(C)Cc1ccccc1.[S]=[Mo](=[S])([S-])[S-] [Trimethylbenzylammonium, Tetrathiomolybdate, bis(benzyltrimethylammonium)]
% remaining [1, 4]: 94%
